Experiments:
[1] = tested on: human colon carcinoma (Colo 201) cells; experiment: XTT 72 hr Growth Inhibition (Assay 3), Colo201; type: cell-based; settings: Colorectal cancer, B-Raf ND, Ras ND
Protocol: (§1) XTT 72 hr Growth Inhibition Protocol for Mammalian Cultured Cells (Assay 3)
(§2) Human diploid foreskin fibroblasts (HFF) or human colon carcinoma (Colo 201) cells were grown in Dulbecco's modified Eagle's medium (DMEM) (Invitrogen/Life Technologies) containing 10% fetal bovine serum (FBS) and the antibiotics penicillin (100 Units/ml) and streotomycin (100 micrograms/ml) (Invitrogen/Life Technologies). Growth was at 37° C. in humidified 5% CO2 incubators in 75 cm^2 plastic flasks. Cells were harvested using 0.25% trypsin/1 mM ethylenediaminetetraacetic acid (EDTA), resuspended in growth medium, and counted using a hemocytometer. Flat-bottomed 96-well plates were seeded with 2×10^3 cells/well in a volume of 200 ul from trypsinized exponentially growing cultures. To “blank” wells, growth medium was added with no additions. Cells were incubated overnight to permit attachment.
(§3) Next day, medium from wells that contained cells was replaced with 180 microliters of fresh medium. Appropriate dilutions of test compounds were added to the wells from stock soloutions of compound dissolved in dimethyl sulfoxide (DMSO); final DMSO concentration in all wells was 0.2%. […] Absorbance at 450 nm was then determined using a 96-well UV plate reader (Molecular Devices). Under these conditions, absorbance of untreated control cells at 450 nm was at least 1.0 optical density unit/ml. […]

human melanoma SKMEL2 = experiment: Methylene Blue Growth Inhibition Assay (Assay 2), SKMEL2; type: cell-based; settings: SK-MEL-2, B-Raf wt, [Q6IR]N-Ras
[2] = tested on: colon carcinoma (Colo 205); experiment: Methylene Blue Growth Inhibition Assay (Assay 2), Colo205; type: cell-based; settings: Homo sapiens, Colorectal cancer, B-Raf V599E, Ras wt
human melanoma A375P = experiment: Methylene Blue Growth Inhibition Assay (Assay 2), A375P; type: cell-based; settings: B-Raf V599E, Ras wt
[3] = tested on: Human diploid foreskin fibroblasts (HFF); experiment: XTT 72 hr Growth Inhibition (Assay 3), HFF; type: cell-based; settings: Fibroblast, normal, B-Raf wt, Ras wt
Protocol: as §1, §2, §3

B-Raf = B-Raf (Homo sapiens, UniProt P15056); experiment: Fluorescence Anisotropy Kinase Binding Assay (Assay 1)
Chain of B-Raf (P15056 whole entry): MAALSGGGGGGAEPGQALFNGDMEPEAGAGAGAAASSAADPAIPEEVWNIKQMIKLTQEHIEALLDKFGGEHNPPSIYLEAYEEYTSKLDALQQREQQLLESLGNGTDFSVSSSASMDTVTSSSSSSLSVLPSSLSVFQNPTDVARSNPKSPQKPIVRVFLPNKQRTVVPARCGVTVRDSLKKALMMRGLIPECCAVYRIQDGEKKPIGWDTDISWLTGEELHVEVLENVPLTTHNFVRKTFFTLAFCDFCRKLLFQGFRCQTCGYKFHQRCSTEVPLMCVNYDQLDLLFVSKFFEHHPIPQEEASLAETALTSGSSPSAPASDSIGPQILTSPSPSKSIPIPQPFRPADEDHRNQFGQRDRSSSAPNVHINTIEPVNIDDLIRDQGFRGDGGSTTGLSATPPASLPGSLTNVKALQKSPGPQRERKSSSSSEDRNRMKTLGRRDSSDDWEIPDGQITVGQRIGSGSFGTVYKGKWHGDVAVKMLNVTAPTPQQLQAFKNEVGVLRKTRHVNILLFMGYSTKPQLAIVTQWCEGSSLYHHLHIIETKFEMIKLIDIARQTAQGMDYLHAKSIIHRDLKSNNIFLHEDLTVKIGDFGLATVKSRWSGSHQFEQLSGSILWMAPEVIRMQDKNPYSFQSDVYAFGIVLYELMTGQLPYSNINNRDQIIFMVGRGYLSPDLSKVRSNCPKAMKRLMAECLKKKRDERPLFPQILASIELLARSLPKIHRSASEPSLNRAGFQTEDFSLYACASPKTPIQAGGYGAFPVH
Source text: Fluorescence Anisotropy Kinase Binding Assay
The concentration of kinase enzyme should preferably be ≧1×Kf. The concentration of fluorescent ligand required will depend on the instrumentation used, and the fluorescent and physicochemical properties. The concentration used must be lower than the concentration of kinase enzyme, and preferably less than half the kinase enzyme concentration. A typical protocol is:
All compounds are serially diluted in DMSO, then by a one step dilution into buffer of comparison, 50 mM HEPES, […] pH7.5, 1 mM CHAPS, 10 mM MgCL2, for the assay.
B-Raf Enzyme concentration: 1 nM
Fluorescent ligand concentration: 0.5 nM
Test compound concentration: 0.5 nM -100 uM
Components incubated in 10 ul final volume in LJL HE 384 type B black microtitre plate until equilibrium reached (Over 3 h, up to 30 h)
Fluorescence anisotropy read in an LJL Acquest.
• Ki=dissociation constant for inhibitor binding • Kf=dissociation constant for fluorescent ligand binding
The fluorescent ligand is the following compound:
which is derived from 5-[2-(4-aminomethylphenyl)-5-pyridin-4-yl]-1H-imidazol4-yl]-2-chlorophenol and rhodamine green.

human melanoma SKMEL3 = experiment: Methylene Blue Growth Inhibition Assay (Assay 2), SKMEL3; type: cell-based; settings: SK-MEL3, B-Raf V599E, Ras wt

IC50 [1]: 0.5 µM | IC50 (human melanoma SKMEL2): 0.22 µM | IC50 [2]: 0.11 µM | IC50 (human melanoma A375P): 0.081 µM | Kd (B-Raf): 1 nM | IC50 (human melanoma SKMEL3): 1 µM
SMILES: CN(C)CCOc1ccc(-c2cc(-c3ccc4c(c3)CCC4=NO)c(-c3ccncc3)o2)cc1 [Example 4, 5-{5-[4-(2-Dimethylaminoethoxy)phenyl]-2-pyridin-4yl-furan-3-yl}indan-1-one oxime]
IC50 [3]: 7.1 µM

From US7297694B2, “Pyridylfurans and pyrroles as Raf kinase inhibitors” (SmithKline Beechum P.L.C., priority 2001, dated 2007)
